IC50 data for 31 compounds are collected here from ChEMBL document CHEMBL1149220, “1-(2-Naphthyl)-1H-pyrazole-5-carboxylamides as potent factor Xa inhibitors. Part 2: A survey of P4 motifs” (Bioorg Med Chem Lett, 2004).

Each structure is given as a SMILES string.

Sequence of Coagulation factor X (P00742 41-179 limits assumed): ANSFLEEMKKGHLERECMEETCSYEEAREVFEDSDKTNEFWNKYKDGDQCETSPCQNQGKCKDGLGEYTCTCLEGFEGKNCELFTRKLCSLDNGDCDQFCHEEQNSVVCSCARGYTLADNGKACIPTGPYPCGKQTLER
Sequence of Coagulation factor X (P00742 235-488 limits assumed): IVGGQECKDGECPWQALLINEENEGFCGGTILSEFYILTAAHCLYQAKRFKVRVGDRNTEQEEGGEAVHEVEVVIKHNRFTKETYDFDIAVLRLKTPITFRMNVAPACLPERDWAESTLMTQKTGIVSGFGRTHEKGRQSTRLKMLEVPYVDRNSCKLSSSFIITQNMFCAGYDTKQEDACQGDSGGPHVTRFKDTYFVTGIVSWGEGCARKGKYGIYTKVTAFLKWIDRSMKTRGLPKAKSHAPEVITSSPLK

This assay addresses Coagulation factor X (Homo sapiens, UniProt P00742). Description: Inhibitory concentration against human Coagulation factor X.
As a reminder, the IC50 is the concentration at which inhibition is half-maximal. Lower therefore signals greater potency in that assay. For `Cc1cc(C(=O)Nc2ccc(-c3ccccn3)cc2F)n(-c2ccc3cc(Cl)ccc3c2)n1`, half-maximal inhibition (IC50) was put at 94 nM. For `Cc1cc(C(=O)Nc2ccc(C(=O)N3CCCCC3)cc2)n(-c2ccc3cc(Cl)ccc3c2)n1` the value was 66 nM.

As for `Cc1cc(C(=O)Nc2ccc(-c3ccccc3S(N)(=O)=O)cc2F)n(-c2cc3ccccc3cc2F)n1`, the IC50 stood at 29 nM.

As to `Cc1cc(C(=O)Nc2ccc(-c3ccncc3)cc2F)n(-c2ccc3cc(Cl)ccc3c2)n1`, the IC50 was found to be 40 nM. To `Cc1cc(C(=O)Nc2ccc(-n3ccnc3CN)cc2F)n(-c2cc3ccccc3cc2F)n1` belongs 13 nM. The compound `Cc1cc(C(=O)Nc2ccc(-n3ccnn3)cc2)n(-c2ccc3cc(Cl)ccc3c2)n1` returned a half-maximal inhibitory concentration (IC50) of 112 nM. Consider `Cc1cc(C(=O)Nc2ccc(-n3ccnc3)cc2)n(-c2ccc3cc(Cl)ccc3c2)n1`, for which the IC50 is 108 nM. `Cc1cc(C(=O)Nc2ccc(-n3cccn3)cc2)n(-c2ccc3cc(Cl)ccc3c2)n1` gave an IC50 of 215 nM. `Cc1cc(C(=O)Nc2ccc(-c3ccccc3S(N)(=O)=O)cn2)n(-c2cc3ccccc3cc2S(C)(=O)=O)n1`: it took 46 nM to reach half-maximal inhibition (IC50).

`Cc1cc(C(=O)Nc2ccc(N3CCCCCC3=O)cc2F)n(-c2cc3ccccc3cc2S(C)(=O)=O)n1` gave a half-inhibitory concentration (IC50) of 47 nM. The IC50 values of the last two compounds are within 1.5-fold of each other. The compound `Cc1cc(C(=O)Nc2ccc(N3CCNCCC3=O)cc2)n(-c2ccc3cc(Cl)ccc3c2)n1` registered an IC50 of 130 nM. For `Cc1cc(C(=O)Nc2ccc(N3CCCNCC3)cc2)n(-c2ccc3cc(Cl)ccc3c2)n1` the value was 36 nM; for `Cc1cc(C(=O)Nc2ccc(N3CCOCCC3=O)cc2F)n(-c2cc3ccccc3cc2S(C)(=O)=O)n1`, 23 nM. For `Cc1cc(C(=O)Nc2ccc(-c3cccc(C(=N)N)c3)cc2)n(-c2ccc3cc(Cl)ccc3c2)n1` the value was 75 nM; for `Cc1cc(C(=O)Nc2ccc(-c3cccc(C(=N)N(C)C)c3)cc2)n(-c2ccc3cc(Cl)ccc3c2)n1`, 380 nM. To `Cc1cc(C(=O)Nc2ccc(N3CCN(C)CC3)cc2)n(-c2ccc3cc(Cl)ccc3c2)n1` belongs 166 nM; to `Cc1cc(C(=O)Nc2ccc(N3CCNCCC3=O)cc2F)n(-c2cc3ccccc3cc2S(C)(=O)=O)n1`, 680 nM. Turning to `Cc1cc(C(=O)Nc2ccc(-c3cccnc3)cc2F)n(-c2ccc3cc(Cl)ccc3c2)n1`, the concentration for half-maximal inhibition (IC50) stood at 92 nM.

Compound `Cc1cc(C(=O)Nc2ncc(-c3ccccc3S(N)(=O)=O)cn2)n(-c2cc3ccccc3cc2F)n1` yielded an IC50 of 39 nM.

`Cc1cc(C(=O)Nc2ccc(N3CCCCC3=O)cc2F)n(-c2cc3ccccc3cc2S(C)(=O)=O)n1`: half-maximal inhibition (IC50) required 27 nM. This IC50 and that of the compound before are within 1.5-fold of each other. For `Cc1cc(C(=O)Nc2ccc(N3CCCC3=O)cc2F)n(-c2cc3ccccc3cc2S(C)(=O)=O)n1` the value was 58 nM. For `Cc1cc(C(=O)Nc2ccc(N3CCOCC3)cc2)n(-c2ccc3cc(Cl)ccc3c2)n1` the value was 88 nM. To `Cc1cc(C(=O)Nc2ccc(-c3ccccc3S(N)(=O)=O)cn2)n(-c2cc3ccccc3cc2F)n1` belongs 81 nM; to `Cc1cc(C(=O)Nc2ccc(N3CCNCC3=O)cc2F)n(-c2cc3ccccc3cc2S(C)(=O)=O)n1`, 41 nM.

`Cc1cc(C(=O)Nc2ccc(-c3ccccc3CN)cc2)n(-c2ccc3cc(Cl)ccc3c2)n1` showed a concentration for half-maximal inhibition (IC50) of 39 nM. In turn, `Cc1cc(C(=O)Nc2ccc(-c3cccc(CN)c3)cc2)n(-c2ccc3cc(Cl)ccc3c2)n1` came in with a 50% inhibitory concentration (IC50) of 70 nM. Against the preceding compound, the IC50 is about 1.8-fold higher.

For `Cc1cc(C(=O)Nc2ccc(-c3ccccc3S(C)(=O)=O)cc2F)n(-c2cc3ccccc3cc2F)n1`, it took 14 nM to reach half-maximal inhibition (IC50).

Consider `Cc1cc(C(=O)Nc2ccc(-n3ccnc3C)cc2F)n(-c2ccc3cc(Cl)ccc3c2)n1`, for which the IC50 stood at 15 nM. The IC50 values of the last two compounds are within 1.5-fold of each other. In the case of `Cc1cc(C(=O)Nc2ccc(-c3ccccc3C(=N)N(C)C)cc2)n(-c2ccc3cc(Cl)ccc3c2)n1`, the 50% inhibitory concentration (IC50) was found to be 26 nM.

As for `Cc1cc(C(=O)Nc2ccc(N3CCCCC3)cc2)n(-c2ccc3cc(Cl)ccc3c2)n1`, the half-maximal inhibitory concentration (IC50) was 131 nM. To `Cc1cc(C(=O)Nc2ccc(-n3nccn3)cc2)n(-c2ccc3cc(Cl)ccc3c2)n1` belongs 2100 nM.
